Test results taken from ChEMBL document CHEMBL4130634, “Discovery of Reversible DNA Methyltransferase and Lysine Methyltransferase G9a Inhibitors with Antitumoral in Vivo Efficacy” (J Med Chem, 2018).

What was measured:
THLE-2 = assay: Growth inhibition of human THLE2 cells after 72 hrs by MTS assay; type: cell-based; settings: thle-2, 72 h
[1] = Permeability of the compound at 50 uM after 18 hrs by PAMPA; type: ADME; settings: read-out: permeability
CYP3A4 = CYP3A4 (Homo sapiens, UniProt P08684); assay: Inhibition of CYP3A4 in human liver microsomes at 10 uM after 10 mins in presence of NADPH by LC-MS/MS analysis relative to control; type: ADME
[2] = Metabolic stability in mouse liver microsomes assessed as parent compound remaining at 1 uM preincubated for 10 mins followed by NADP addition after 20 mins by LC-MS/MS analysis; type: ADME, microsome; settings: read-out: Stability
CYP1A2 = molecular target: T1, CYP1A2 (Homo sapiens, UniProt P05177); assay: Inhibition of CYP1A2 in human liver microsomes at 10 uM after 10 mins in presence of NADPH by LC-MS/MS analysis relative to control; type: ADME
T1 sequence (P05177 whole entry): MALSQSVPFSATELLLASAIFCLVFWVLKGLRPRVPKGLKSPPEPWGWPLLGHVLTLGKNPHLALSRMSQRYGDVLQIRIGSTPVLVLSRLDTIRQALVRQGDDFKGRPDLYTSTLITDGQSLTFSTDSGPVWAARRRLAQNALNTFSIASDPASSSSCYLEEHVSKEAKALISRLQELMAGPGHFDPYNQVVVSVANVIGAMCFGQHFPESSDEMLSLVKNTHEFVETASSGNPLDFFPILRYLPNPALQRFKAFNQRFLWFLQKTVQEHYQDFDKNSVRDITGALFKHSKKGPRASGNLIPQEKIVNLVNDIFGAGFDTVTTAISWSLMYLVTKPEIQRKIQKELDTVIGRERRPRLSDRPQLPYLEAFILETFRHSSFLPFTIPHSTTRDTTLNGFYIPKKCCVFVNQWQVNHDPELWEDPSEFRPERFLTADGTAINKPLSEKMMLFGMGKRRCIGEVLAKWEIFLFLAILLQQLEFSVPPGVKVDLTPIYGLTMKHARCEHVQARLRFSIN

CYP2C19 = CYP2C19 (Homo sapiens, UniProt P33261); assay: Inhibition of CYP2C19 in human liver microsomes at 10 uM after 10 mins in presence of NADPH by LC-MS/MS analysis relative to control; type: ADME
MV4-11 = assay: Growth inhibition of human MV4-11 cells after 48 hrs by MTS assay; type: functional; settings: MV4-11, 48 h
[3] = Growth inhibition of human CEMO1 cells after 48 hrs by MTS assay; type: functional
[4] = molecular target: T2, Histone-lysine N-methyltransferase EHMT2 (Homo sapiens, UniProt Q96KQ7); assay: Inhibition of human G9a using biotinylated-H3K9 peptide as substrate after 1 hr in presence of SAM by TR-FRET assay
T2 sequence (Q96KQ7 whole entry): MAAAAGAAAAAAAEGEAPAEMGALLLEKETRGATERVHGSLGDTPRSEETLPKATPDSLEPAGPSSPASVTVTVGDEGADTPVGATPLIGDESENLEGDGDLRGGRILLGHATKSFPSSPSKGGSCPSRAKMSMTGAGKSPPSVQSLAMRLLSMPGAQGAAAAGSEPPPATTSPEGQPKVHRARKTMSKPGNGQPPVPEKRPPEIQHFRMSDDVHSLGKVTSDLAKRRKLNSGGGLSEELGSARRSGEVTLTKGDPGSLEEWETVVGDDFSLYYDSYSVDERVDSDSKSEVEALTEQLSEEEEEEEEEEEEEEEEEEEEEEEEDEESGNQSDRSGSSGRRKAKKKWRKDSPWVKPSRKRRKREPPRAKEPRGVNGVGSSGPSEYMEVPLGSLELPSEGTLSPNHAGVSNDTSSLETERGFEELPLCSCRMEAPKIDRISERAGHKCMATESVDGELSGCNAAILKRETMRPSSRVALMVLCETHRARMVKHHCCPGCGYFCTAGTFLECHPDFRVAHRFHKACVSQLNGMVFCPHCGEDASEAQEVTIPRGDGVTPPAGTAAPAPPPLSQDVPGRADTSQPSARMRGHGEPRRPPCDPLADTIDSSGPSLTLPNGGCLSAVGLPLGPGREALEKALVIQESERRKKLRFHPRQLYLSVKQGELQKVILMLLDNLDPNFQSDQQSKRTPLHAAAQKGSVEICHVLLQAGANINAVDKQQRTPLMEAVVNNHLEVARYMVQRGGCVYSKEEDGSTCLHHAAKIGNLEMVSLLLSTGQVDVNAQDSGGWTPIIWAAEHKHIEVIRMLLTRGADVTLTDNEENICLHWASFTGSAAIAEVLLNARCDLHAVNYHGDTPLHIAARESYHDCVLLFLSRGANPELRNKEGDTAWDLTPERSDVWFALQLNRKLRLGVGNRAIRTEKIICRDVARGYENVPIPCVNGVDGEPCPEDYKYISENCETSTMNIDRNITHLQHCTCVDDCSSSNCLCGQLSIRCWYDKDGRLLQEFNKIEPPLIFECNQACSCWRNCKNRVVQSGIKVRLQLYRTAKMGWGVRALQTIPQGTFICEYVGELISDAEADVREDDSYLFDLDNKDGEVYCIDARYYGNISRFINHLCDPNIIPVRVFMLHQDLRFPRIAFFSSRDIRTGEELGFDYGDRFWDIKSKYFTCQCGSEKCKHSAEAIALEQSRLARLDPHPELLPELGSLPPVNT

[5] = Metabolic stability in human liver microsomes assessed as parent compound remaining at 1 uM preincubated for 10 mins followed by NADP addition after 20 mins by LC-MS/MS analysis; type: ADME, microsome; settings: microsomes, 20 min, 1 µM
CYP2C9 = CYP2C9 (Homo sapiens, UniProt P11712); assay: Inhibition of CYP2C9 in human liver microsomes at 10 uM after 10 mins in presence of NADPH by LC-MS/MS analysis relative to control; type: ADME
[6] = Half life in mouse liver microsomes at 1 uM preincubated for 10 mins followed by NADP addition after 20 mins by LC-MS/MS analysis; type: ADME, microsome
CYP2D6 = CYP2D6 (Homo sapiens, UniProt P10635); assay: Inhibition of CYP2D6 in human liver microsomes at 10 uM after 10 mins in presence of NADPH by LC-MS/MS analysis relative to control; type: ADME
[7] = molecular target: DNA (cytosine-5)-methyltransferase 1 (Homo sapiens, UniProt P26358); assay: Inhibition of human DNMT1 using polydeoxyinosine polydeoxycytosine DNA as substrate after 15 mins in presence of SAM by TR-FRET assay
OCI-Ly3 = assay: Growth inhibition of human OCI-LY3 cells after 48 hrs by MTS assay; type: functional; settings: OCI-Ly3, 48 h
OCI-Ly10 = assay: Growth inhibition of human OCI-LY10 cells after 48 hrs by MTS assay; type: functional; settings: OCI-Ly10, 48 h
[8] = Half life in human liver microsomes at 1 uM preincubated for 10 mins followed by NADP addition after 20 mins by LC-MS/MS analysis; type: ADME, microsome; settings: microsomes, 20 min, 1 µM
[9] = Half life in RARG2-/-gammac-/- Balb/c mouse at […], iv administered as single dose by LC-MS/MS analysis; type: ADME, organism-based; settings: in vivo
[10] = AUC (0 to 24 hrs) in RARG2-/-gammac-/- Balb/c mouse at […], iv administered as single dose by LC-MS/MS analysis; type: ADME, organism-based; parameters: dose 1.9 mg/kg, time < 24 hr, route intravenous; settings: in vivo
[11] = Volume of distribution at steady state in RARG2-/-gammac-/- Balb/c mouse at […], iv administered as single dose by LC-MS/MS analysis; type: ADME, organism-based; settings: in vivo, read-out: Vdss
[12] = Growth inhibition of human LAL-CUN-2 cells after 48 hrs by MTS assay; type: functional
[13] = Clearance in RARG2-/-gammac-/- Balb/c mouse at […], iv administered as single dose by LC-MS/MS analysis; type: ADME, organism-based; settings: in vivo
[14] = Growth inhibition of human LAL-CUN-2 cells at 10 uM after 48 hrs by MTS assay relative to control; type: functional; settings: read-out: GI

DNA (cytosine-5)-methyltransferase 1, sequence (P26358 whole entry): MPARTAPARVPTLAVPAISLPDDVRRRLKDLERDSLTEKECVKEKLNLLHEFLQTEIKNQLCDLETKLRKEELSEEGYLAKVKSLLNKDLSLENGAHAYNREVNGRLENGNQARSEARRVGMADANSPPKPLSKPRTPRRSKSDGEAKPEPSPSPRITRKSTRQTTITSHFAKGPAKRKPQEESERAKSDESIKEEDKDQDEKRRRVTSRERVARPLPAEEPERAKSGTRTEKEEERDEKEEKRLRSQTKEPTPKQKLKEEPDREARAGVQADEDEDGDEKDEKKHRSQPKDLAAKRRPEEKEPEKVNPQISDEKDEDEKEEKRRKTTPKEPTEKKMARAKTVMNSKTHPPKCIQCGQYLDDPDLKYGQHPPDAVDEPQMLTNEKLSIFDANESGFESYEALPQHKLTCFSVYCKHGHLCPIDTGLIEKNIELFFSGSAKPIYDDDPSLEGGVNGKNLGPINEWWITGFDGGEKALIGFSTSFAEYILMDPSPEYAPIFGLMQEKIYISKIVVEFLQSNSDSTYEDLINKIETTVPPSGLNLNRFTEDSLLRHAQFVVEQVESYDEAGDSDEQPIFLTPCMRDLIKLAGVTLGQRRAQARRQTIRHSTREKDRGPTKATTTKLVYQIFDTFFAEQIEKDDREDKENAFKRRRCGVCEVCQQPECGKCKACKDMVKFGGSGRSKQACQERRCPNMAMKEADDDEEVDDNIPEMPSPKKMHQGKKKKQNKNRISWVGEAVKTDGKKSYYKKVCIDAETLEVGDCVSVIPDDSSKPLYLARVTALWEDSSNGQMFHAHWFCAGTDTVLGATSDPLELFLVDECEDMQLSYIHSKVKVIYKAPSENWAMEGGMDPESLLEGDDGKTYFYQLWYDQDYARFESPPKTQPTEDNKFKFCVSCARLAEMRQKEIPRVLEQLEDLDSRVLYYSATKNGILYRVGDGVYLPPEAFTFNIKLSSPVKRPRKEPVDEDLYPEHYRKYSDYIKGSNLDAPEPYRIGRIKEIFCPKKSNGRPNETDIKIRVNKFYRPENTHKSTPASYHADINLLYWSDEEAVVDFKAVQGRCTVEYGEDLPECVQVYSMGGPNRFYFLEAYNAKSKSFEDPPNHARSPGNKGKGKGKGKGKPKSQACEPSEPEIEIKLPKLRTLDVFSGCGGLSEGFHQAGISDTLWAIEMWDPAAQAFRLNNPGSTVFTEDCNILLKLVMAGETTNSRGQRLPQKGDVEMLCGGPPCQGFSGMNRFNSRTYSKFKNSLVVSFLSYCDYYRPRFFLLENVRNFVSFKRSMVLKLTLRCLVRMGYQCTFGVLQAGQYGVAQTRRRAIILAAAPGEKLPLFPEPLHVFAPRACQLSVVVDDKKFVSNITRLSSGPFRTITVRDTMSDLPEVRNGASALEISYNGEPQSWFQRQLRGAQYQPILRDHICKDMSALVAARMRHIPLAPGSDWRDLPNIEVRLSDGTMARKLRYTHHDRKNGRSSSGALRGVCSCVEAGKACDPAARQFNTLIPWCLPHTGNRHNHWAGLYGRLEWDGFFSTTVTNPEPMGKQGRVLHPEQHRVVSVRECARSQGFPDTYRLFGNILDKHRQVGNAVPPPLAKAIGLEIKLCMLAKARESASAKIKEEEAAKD
CYP2C9, sequence (P11712 whole entry): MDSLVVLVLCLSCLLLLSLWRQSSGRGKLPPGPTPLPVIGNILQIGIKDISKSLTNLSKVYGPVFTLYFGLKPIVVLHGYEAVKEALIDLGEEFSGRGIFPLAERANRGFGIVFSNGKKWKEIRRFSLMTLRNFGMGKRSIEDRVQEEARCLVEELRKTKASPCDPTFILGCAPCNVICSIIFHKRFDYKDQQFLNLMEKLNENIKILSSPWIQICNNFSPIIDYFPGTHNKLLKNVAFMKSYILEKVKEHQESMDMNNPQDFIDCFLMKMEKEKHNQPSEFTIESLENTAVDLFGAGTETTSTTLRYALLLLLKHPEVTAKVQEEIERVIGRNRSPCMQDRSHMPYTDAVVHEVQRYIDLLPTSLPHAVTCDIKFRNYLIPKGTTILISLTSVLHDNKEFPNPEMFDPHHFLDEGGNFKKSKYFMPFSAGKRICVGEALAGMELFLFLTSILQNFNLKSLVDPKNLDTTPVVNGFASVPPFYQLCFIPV
CYP2C19, sequence (P33261 whole entry): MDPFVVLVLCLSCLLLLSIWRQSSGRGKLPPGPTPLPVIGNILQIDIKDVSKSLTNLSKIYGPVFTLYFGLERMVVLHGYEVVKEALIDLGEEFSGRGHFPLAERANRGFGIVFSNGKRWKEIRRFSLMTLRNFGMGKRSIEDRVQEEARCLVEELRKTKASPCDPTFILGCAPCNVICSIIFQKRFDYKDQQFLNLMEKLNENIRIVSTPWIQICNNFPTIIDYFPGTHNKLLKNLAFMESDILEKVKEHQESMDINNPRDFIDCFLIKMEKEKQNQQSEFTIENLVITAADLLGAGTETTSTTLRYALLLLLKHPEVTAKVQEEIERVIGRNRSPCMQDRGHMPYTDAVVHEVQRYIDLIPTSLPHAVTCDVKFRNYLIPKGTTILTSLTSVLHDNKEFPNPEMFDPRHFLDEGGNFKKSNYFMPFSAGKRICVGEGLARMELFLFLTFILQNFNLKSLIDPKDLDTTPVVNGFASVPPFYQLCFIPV
CYP2D6, sequence (P10635 whole entry): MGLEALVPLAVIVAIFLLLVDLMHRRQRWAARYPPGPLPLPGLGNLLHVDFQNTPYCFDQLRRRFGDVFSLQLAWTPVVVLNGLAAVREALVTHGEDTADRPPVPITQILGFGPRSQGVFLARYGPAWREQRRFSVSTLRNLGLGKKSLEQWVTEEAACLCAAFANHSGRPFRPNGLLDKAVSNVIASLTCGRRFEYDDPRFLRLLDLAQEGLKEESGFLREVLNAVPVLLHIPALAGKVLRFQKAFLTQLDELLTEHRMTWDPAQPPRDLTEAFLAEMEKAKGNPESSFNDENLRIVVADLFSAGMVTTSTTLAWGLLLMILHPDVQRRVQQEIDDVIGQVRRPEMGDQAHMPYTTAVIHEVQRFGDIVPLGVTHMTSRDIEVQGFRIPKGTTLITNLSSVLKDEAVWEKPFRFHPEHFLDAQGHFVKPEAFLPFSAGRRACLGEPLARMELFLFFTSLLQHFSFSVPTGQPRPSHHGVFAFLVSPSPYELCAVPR
CYP3A4, sequence (P08684 whole entry): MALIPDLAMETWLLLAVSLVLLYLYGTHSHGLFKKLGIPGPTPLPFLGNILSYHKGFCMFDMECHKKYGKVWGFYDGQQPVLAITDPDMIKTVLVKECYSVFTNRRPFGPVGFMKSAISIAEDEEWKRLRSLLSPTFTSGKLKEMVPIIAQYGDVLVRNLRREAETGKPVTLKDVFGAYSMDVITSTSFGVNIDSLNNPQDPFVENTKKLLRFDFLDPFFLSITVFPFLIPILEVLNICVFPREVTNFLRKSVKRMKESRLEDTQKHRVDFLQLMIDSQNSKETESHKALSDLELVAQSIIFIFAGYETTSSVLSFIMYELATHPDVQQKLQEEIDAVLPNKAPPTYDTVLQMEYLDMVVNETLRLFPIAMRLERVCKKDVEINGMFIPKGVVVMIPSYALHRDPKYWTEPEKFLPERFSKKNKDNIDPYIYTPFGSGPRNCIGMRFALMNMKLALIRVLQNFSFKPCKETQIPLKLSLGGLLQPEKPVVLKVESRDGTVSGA

SMILES | LC50 (THLE-2) [nM] | Papp at 18 h, 50 µM [1] [×10⁻⁶ cm/s] | remaining at 20 min, 1 µM [2] [%] | GI50 [3] [nM] | IC50 [4] [nM] | Stability [5] [%] | half-life at 1 µM [6] [min] | IC50 [7] [nM] | GI50 (OCI-Ly3) [nM] | GI50 (OCI-Ly10) [nM] | t1/2 [8] [min] | further results
COc1cc2c(NC3CCN(C(C)C)CC3)cc(-c3ccc(C)o3)nc2cc1OCCCN1CCCC1 | 1340 | 2.58 | 36.9 | 247 | 3 | 64 | 18 | 231 | 898 | 792 | 102 | inhibition at 10 min, 10 µM (CYP3A4): 0%; inhibition at 10 min, 10 µM (CYP1A2): 4.3%; inhibition at 10 min, 10 µM (CYP2C19): 0%; GI50 (MV4-11): 649 nM; inhibition at 10 min, 10 µM (CYP2C9): 6.1%; inhibition at 10 min, 10 µM (CYP2D6): 11.4%
CCc1ccc(-c2cc(NC3CCN(C)CC3)c3cc(OC)c(OCCCN4CCCC4)cc3n2)o1 | – | – | 16.9 | – | – | 67.1 | 12 | – | – | – | 96 | half-life [9]: 792 min; AUC(0-t) at 24 h [10]: 0.505 µM·h; Vd [11]: 88.5 L/kg; GI50 [12]: 577 nM; clearance [13]: 98.3 mL/min/kg
COc1cc2c(NC3CCN(C)CC3)cc(-c3ccoc3)nc2cc1OCCCN1CCCC1 | 22300 | 0.22 | – | 4560 | 7 | – | – | 978 | > 4000 | 386 | – | inhibition of growth at 10 µM [14]: 54%
